Drawing on patent US20090270381A1, “Non-steroidal progesterone receptor modulators” (priority 2007, published 2009), this text covers IC50 and Emax for ten compounds.

pIC50: −log10 of the molar value.

The target of this experiment is T1, PR-A (Homo sapiens, UniProt P06401).
T1 construct: expressed in transfected cells
T1 sequence (P06401 1-769 isoform P06401-2): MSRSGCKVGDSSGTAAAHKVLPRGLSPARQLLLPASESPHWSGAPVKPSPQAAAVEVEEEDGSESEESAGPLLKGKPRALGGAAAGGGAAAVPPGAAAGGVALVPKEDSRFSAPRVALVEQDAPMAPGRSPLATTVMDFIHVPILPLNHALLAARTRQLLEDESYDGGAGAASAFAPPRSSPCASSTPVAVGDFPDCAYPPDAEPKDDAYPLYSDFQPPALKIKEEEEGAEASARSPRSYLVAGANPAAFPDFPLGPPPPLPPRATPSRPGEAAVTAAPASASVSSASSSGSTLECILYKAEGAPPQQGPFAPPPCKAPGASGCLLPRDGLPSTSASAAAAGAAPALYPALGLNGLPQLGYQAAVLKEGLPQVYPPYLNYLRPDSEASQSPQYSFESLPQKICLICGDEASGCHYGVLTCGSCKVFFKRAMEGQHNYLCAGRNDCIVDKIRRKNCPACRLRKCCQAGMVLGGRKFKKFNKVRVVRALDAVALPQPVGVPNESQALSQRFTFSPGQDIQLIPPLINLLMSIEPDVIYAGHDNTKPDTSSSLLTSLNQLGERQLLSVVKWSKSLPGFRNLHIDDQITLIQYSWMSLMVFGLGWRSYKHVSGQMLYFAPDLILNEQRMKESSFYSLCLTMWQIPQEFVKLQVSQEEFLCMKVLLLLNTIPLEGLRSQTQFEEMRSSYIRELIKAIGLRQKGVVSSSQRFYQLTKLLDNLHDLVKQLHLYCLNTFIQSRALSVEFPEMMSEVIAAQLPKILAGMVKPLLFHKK
Description: Transactivation test on antagonistic activity at PR-A. Type of experiment: cell-based. To be noted: for pIC50: antagonism at PR-A; for Emax: read-out: Efficacy (antagonism at PR-A) [%]. The protocol:
The transactivation assay is carried out as described in WO 02/054064.

As a reminder, the pIC50 is the negative decadic logarithm of the IC50, by convention in mol/L. Read a low pIC50 as a large IC50. As for `CC(=O)c1ccc(-c2ccccc2CC(O)(C(=O)Nc2ccc(C#N)c(Cl)c2)C2CCCCC2)cc1` (single isomer, unassigned) [Example 19a, rac-3-(4′-Acetylbiphenyl-2-yl)-N-(3-chloro-4-cyanophenyl)-2-cyclohexyl-2-hydroxy-propionamide], the pIC50 was 8.20 and the Emax was found to be 108%.
The like results for `Cn1c(C#N)ccc1NC(=O)C(O)(Cc1ccccc1)C1CCCCC1` (centres unmarked) [Example 97, N-(5-Cyano-1-methyl-1H-pyrrol-2-yl)-2-cyclohexyl-2-hydroxy-3-phenyl-propionamide] were, in that order, 7.25 and 105%.
For `CNC(=O)c1cccc(-c2cccc(CC(O)(C(=O)Nc3ccc(C#N)c(C(F)(F)F)c3)C3CCN(C(=O)c4ccccc4)CC3)c2)c1` (single isomer, unassigned) [Example 159, N-Methyl-3′-[2-(1-benzoylpiperidin-4-yl)-2-(4-cyano-3-trifluoromethylphenyl-carbamoyl)-2-hydroxyethyl]biphenyl-3-carboxamide], the pIC50 is 7.80 and the Emax was determined as 96.2%.
For `N#Cc1ccc(NC(=O)C(O)(Cc2ccccc2)C2CCN(C(=O)C3CC3)CC2)cc1C(F)(F)F` (single isomer, unassigned) [Example 108, N-(4-Cyano-3-trifluoromethylphenyl)-2-(1-cyclopropanecarbonylpiperidin-4-yl)-2-hydroxy-3-phenylpropion amide] the same measures were 7.44 and 96%.
On to `CS(=O)(=O)N1CCN(Cc2cccc(CC(O)(C(=O)Nc3ccc(C#N)c(C(F)(F)F)c3)C3CCCCC3)c2)CC1` (centres unmarked) [Example 84, N-(4-Cyano-3-trifluoromethylphenyl)-2-cyclohexyl-2-hydroxy-3-[3-(4-methane-sulfonylpiperazin-1-ylmethyl)phenyl]-propionamide], for which the pIC50 was 7.29 and the Emax is 102%.
For the compound `CNC(=O)c1cccc(-c2cccc(CC(O)(C(=O)Nc3ccc(C#N)c(C(F)(F)F)c3)C3CCCCC3)c2)c1` (centres unmarked) [Example 68, N-Methyl-3′-[2-(4-cyano-3-trifluoro-methylphenylcarbamoyl)-2-cyclohexyl-2-hydroxyethyl]biphenyl-3-carboxamide], the pIC50 was 8.29 and the Emax amounted to 102%.
For `N#Cc1ccc(NC(=O)C(O)(Cc2ccccc2)C2CCN(C(=O)c3ccccc3)CC2)cc1C(F)(F)F` (single isomer, unassigned) [Example 101a, 2-(1-Benzoylpiperidin-4-yl)-N-(4-cyano-3-trifluoromethylphenyl)-2-hydroxy-3-phenylpropionamide] the same measures were 7.83 and 103%.
For the compound `CNS(=O)(=O)c1ccc(-c2cccc(C[C@](O)(C(=O)Nc3ccc(C#N)c(C(F)(F)F)c3)C3CCCCC3)c2)cc1` (stereo in doubt) [Example 63, N-(4-Cyano-3-trifluoromethylphenyl)-2-cyclohexyl-2-hydroxy-3-(4′-methyl-sulfamoylbiphenyl-3-yl)propionamide], the pIC50 was 7.58 and the Emax came to 104%.
Take `CC(=O)Nc1cccc(-c2cccc(CC(O)(C(=O)Nc3ccc(C#N)c(C(F)(F)F)c3)C3CCCCC3)c2)c1` (centres unmarked) [Example 71, 3-(3′-Acetylaminobiphenyl-3-yl)-N-(4-cyano-3-trifluoromethylphenyl)-2-cyclohexyl-2-hydroxypropionamide]: the pIC50 is 7.76 and the Emax amounted to 100%.
In the case of `CNC(=O)c1cccc(-c2cccc(CC(O)(C(=O)Nc3ccc(C#N)c(C(F)(F)F)c3)C3CCN(S(=O)(=O)c4cccc(F)c4)CC3)c2)c1` (centres unmarked) [Example 169, N-Methyl-3′-{2-(4-cyano-3-trifluoro-methylphenylcarbamoyl)-2-[1-(3-fluoro-benzenesulfonyl)-piperidin-4-yl]-2-hydroxyethyl}biphenyl-3-carboxamide], the pIC50 was 8.77 and the Emax was 103%.
